The values that follow come from patent US11180657B2, “Polysulfonated fluorescence dyes” (ATTO-TEC GmbH, priority 2017, dated 2021).

Data set [1] in a line: Fluorescence maximum of the dye. The data set is classed as physicochemical. From the text: (§1) Examples of the compounds according to the invention are listed in Tables 2-6, where the structures as well as the absorption and fluorescence maxima are indicated. The spectra of selected compounds are shown FIGS. 5-18.
Data set [2] is described as follows: Absorption maximum of the dye. The data set is classed as physicochemical.
Text: as §1

Marks after values point to notes of the source that are not given here.

With `CN(CCCC(=O)O)C(=O)c1ccccc1C1=c2cc3c(cc2C(C)(C)c2c1cc1c4c2CCCN4CCC1)=[N+](Cc1ccc(S(=O)(=O)O)cc1S(=O)(=O)O)CCC3` [Compound 41], the λfl in data set [1] (solvent PBS pH 7.4) amounted to 659 nm; in data set [1] (solvent ethanol), 663 nm. Besides, the λabs in data set [2] (solvent PBS pH 7.4) was determined as 640 nm; in data set [2] (solvent ethanol), 642 nm.
Consider `CC[N+]1=c2cc3c(cc2C(CS(=O)(=O)O)=CC1(C)C)=C(c1c(F)c(F)c(SCCS(=O)(=O)O)c(F)c1F)c1cc2c(cc1C3(C)C)N(Cc1ccc(S(=O)(=O)O)cc1S(=O)(=O)O)CCC2` [Compound 42], for which the λfl in data set [1] (solvent PBS pH 7.4) is listed as 701^b nm. Moreover, the λabs in data set [2] (solvent PBS pH 7.4) is 682^b nm.
On the same counts, the results for `CC[N+]1=c2cc3c(cc2C(CS(=O)(=O)O)=CC1(C)C)=C(c1c(F)c(F)c(SCC(=O)O)c(F)c1F)c1cc2c(cc1C3(C)C)N(Cc1ccc(S(=O)(=O)O)cc1S(=O)(=O)O)CCC2` [Compound 43] are 704^b nm and 684^b nm.
On to `CC1(C)C=C(CS(=O)(=O)O)c2cc3c(cc2N1)C(C)(C)c1cc2c(cc1=C3c1c(F)c(F)c(SCC(=O)O)c(F)c1F)C(CS(=O)(=O)O)=CC(C)(C)[N+]=2Cc1ccc(S(=O)(=O)O)cc1` [Compound 44], for which the λfl in data set [1] (solvent PBS pH 7.4) is reported as 707^b nm. Besides, in data set [2] (solvent PBS pH 7.4), the λabs is 687^b nm.
As for `CC1(C)c2cc3c(cc2C(c2c(F)c(F)c(SCCS(=O)(=O)O)c(F)c2F)=c2cc4c(cc21)=[N+](CCc1ccc(S(=O)(=O)O)cc1)C(C)(C)C=C4CS(=O)(=O)O)C(CS(=O)(=O)O)=CC(C)(C)N3CCCC(=O)O` [Compound 45], the λfl in data set [1] (solvent PBS pH 7.4) was 719^b nm. Besides, in data set [2] (solvent PBS pH 7.4), the λabs is 698^b nm.
On the same counts, the results for `CN(Cc1ccc(S(=O)(=O)O)cc1S(=O)(=O)O)c1ccc2c(c1)C(C)(C)C1=C/C(=[N+](/C)Cc3ccc(S(=O)(=O)O)cc3S(=O)(=O)O)C=CC1=C2c1c(F)c(F)c(F)c(F)c1F` [Compound 46] are 666^b nm and 646^b nm.
For `CN(Cc1ccc(S(=O)(=O)O)cc1S(=O)(=O)O)c1ccc2c(c1)C(C)(C)C1=C/C(=[N+](/C)Cc3ccc(S(=O)(=O)O)cc3S(=O)(=O)O)C=CC1=C2c1c(F)c(F)c(SCC(=O)O)c(F)c1F` [Compound 47], in that order: 666^b nm and 645^b nm.
For `CC1(C)c2cc3c(cc2C(c2c(F)c(F)c(SCCS(=O)(=O)O)c(F)c2F)=c2cc4c(cc21)=[N+](Cc1ccc(S(=O)(=O)O)cc1S(=O)(=O)O)C(C)(C)C=C4CS(=O)(=O)O)CCCN3CCCC(=O)O` [Compound 48], in that order: 705^b nm and 682^b nm.
For `CC1(C)c2cc3c(cc2C(c2c(Cl)cccc2Cl)=c2cc4c(cc21)=[N+](Cc1ccc(S(=O)(=O)O)cc1S(=O)(=O)O)C(C)(C)C=C4CS(=O)(=O)O)CCCN3CCCC(=O)O` [Compound 52], the λfl in data set [1] (solvent PBS pH 7.4) is on record as 698^b nm. Moreover, in data set [2] (solvent PBS pH 7.4), the λabs is 673^b nm.
On the same counts, the results for `CC1(C)c2cc3c(cc2C(c2c(Cl)cccc2Cl)=c2cc4c(cc21)=[N+](Cc1ccc(S(=O)(=O)O)cc1S(=O)(=O)O)C(C)(C)CC4CS(=O)(=O)O)CCCN3CCCC(=O)O` (stereo not drawn) [Compound 53] are 677^b nm and 654^b nm.
For `CN(Cc1ccc(S(=O)(=O)O)cc1S(=O)(=O)O)c1ccc2c(c1)[Si](C)(C)C1=C/C(=[N+](/C)Cc3ccc(S(=O)(=O)O)cc3S(=O)(=O)O)C=CC1=C2c1c(F)c(F)c(SCC(=O)O)c(F)c1F` [Compound 54], in that order: 709^b nm and 685^b nm.
For `CCN1c2cc3c(cc2C(CS(=O)(=O)O)=CC1(C)C)C(c1n(C)cc[n+]1CCCCS(=O)(=O)O)=c1cc2c(cc1C3(C)C)=[N+](Cc1ccc(S(=O)(=O)O)cc1S(=O)(=O)O)CCC2` [Compound 55], in that order: 749^b nm and 725^b nm.
As to `CCN1c2cc3c(cc2C(CS(=O)(=O)O)=CC1(C)C)C(c1n(C)cc[n+]1CCCC(=O)O)=c1cc2c(cc1C3(C)C)=[N+](Cc1ccc(S(=O)(=O)O)cc1S(=O)(=O)O)CCC2` [Compound 56], the λfl in data set [1] (solvent PBS pH 7.4) is 746^b nm. In addition, in data set [2] (solvent PBS pH 7.4), the λabs was 724^b nm.
For `Cn1cc[n+](CCCCS(=O)(=O)O)c1C1=c2cc3c(cc2C(C)(C)c2cc4c(cc21)C(CS(=O)(=O)O)=CC(C)(C)N4CCCC(=O)O)=[N+](Cc1ccc(S(=O)(=O)O)cc1S(=O)(=O)O)CCC3` [Compound 57], in that order: 749^b nm and 725^b nm.
For the compound `CC1=CC(C)(C)N(Cc2ccc(S(=O)(=O)O)cc2)c2cc3c(cc21)C(c1n(C)cc[n+]1CCCCS(=O)(=O)O)=c1cc2c(cc1C3(C)C)=[N+](CCCC(=O)O)C(C)(C)C=C2C` [Compound 58], the λfl in data set [1] (solvent PBS pH 7.4) is 775^b nm. Further, the λabs in data set [2] (solvent PBS pH 7.4) was 742^b nm.
For `Cn1cc[n+](CCCCS(=O)(=O)O)c1C1=c2cc3c(cc2C(C)(C)c2cc4c(cc21)C(CS(=O)(=O)O)=CC(C)(C)N4CCS(=O)(=O)O)=[N+](CCCC(=O)O)C(C)(C)C=C3CS(=O)(=O)O` [Compound 59], in that order: 771^b nm and 739^b nm.
Take `Cn1cc[n+](CCCCS(=O)(=O)O)c1C1=c2cc3c(cc2C(C)(C)c2cc4c(cc21)C(CS(=O)(=O)O)=CC(C)(C)N4Cc1ccc(S(=O)(=O)O)cc1S(=O)(=O)O)=[N+](CCCC(=O)O)C(C)(C)C=C3CS(=O)(=O)O` [Compound 60]: the λfl in data set [1] (solvent PBS pH 7.4) is on record as 775^b nm. In addition, the λabs in data set [2] (solvent PBS pH 7.4) is given as 742^b nm.
On the same counts, the results for `CC[N+]1=c2cc3c(cc2C(CS(=O)(=O)O)=CC1(C)C)=C(c1n(C)cc[n+]1CCCCC(=O)O)c1cc2c(cc1C3(C)C)N(Cc1ccc(S(=O)(=O)O)cc1S(=O)(=O)O)C(C)(C)C=C2CS(=O)(=O)O` [Compound 61] are 776^b nm and 743^b nm.
For `Cn1cc[n+](CCCC(=O)O)c1C1=c2cc3c(cc2[Si](C)(C)c2cc4c(cc21)C(CS(=O)(=O)O)=CC(C)(C)N4Cc1ccc(S(=O)(=O)O)cc1S(=O)(=O)O)=[N+](Cc1ccc(S(=O)(=O)O)cc1S(=O)(=O)O)C(C)(C)C=C3CS(=O)(=O)O` [Compound 62], in that order: 817^b nm and 791^b nm.
For `Cn1cc[n+](CCCC(=O)O)c1C1=c2cc3c(cc2[Si](C)(C)c2cc4c(cc21)C(CS(=O)(=O)O)CC(C)(C)N4Cc1ccc(S(=O)(=O)O)cc1S(=O)(=O)O)=[N+](Cc1ccc(S(=O)(=O)O)cc1S(=O)(=O)O)C(C)(C)CC3CS(=O)(=O)O` (stereo not drawn) [Compound 63], in that order: 776^b nm and 752^b nm.
With `CC[N+]1=c2cc3c(cc2C(CS(=O)(=O)O)=CC1(C)C)=C(c1ccc(C(=O)O)cc1)c1cc2c(cc1C3(C)C)N(Cc1ccc(S(=O)(=O)O)cc1S(=O)(=O)O)C(C)(C)C=C2CS(=O)(=O)O` [Compound 64], the λfl in data set [1] (solvent PBS pH 7.4) is 697^b nm. Also, in data set [2] (solvent PBS pH 7.4), the λabs is on record as 667^b nm.
As to `CCN1c2cc3c(cc2C(CS(=O)(=O)O)=CC1(C)C)C(c1ccccc1C(=O)N(C)CCCC(=O)O)=c1cc2c(cc1C3(C)C)=[N+](Cc1ccc(S(=O)(=O)O)cc1S(=O)(=O)O)C(C)(C)C=C2CS(=O)(=O)O` [Compound 65], the λfl in data set [1] (solvent PBS pH 7.4) was 706^b nm. In addition, in data set [2] (solvent PBS pH 7.4), the λabs is on record as 679^b nm.
On the same counts, the results for `CCN1c2cc3c(cc2C(CS(=O)(=O)O)CC1(C)C)C(c1ccccc1C(=O)N(C)CCCC(=O)O)=c1cc2c(cc1C3(C)C)=[N+](Cc1ccc(S(=O)(=O)O)cc1S(=O)(=O)O)C(C)(C)CC2CS(=O)(=O)O` (stereo not drawn) [Compound 66] are 665^b nm and 645^b nm.
